Structures are written as SMILES. Like-named read-outs stand apart in the source and are kept apart here.

Data set [1] has as its system Aβ peptide production in rat primary neuronal culture. In words: In vitro cellular assay: quantification of Aβ peptide in culture of neurons from rat fetus brain. It counts as cell-based, Wistar rat. As to conditions: Primary cortical neuron; Aβ ELISA, rat primary cortical neurons; Aβ species (x-40 or x-42) not given; read-out: IC50. The protocol:
Quantification of Aβ Peptide in Culture of Neurons from Rat Fetus Brain
Primary neuronal cultures were prepared from the cerebral cortex of embryonic day 18 Wistar rats (Charles River, UK). Specifically, the embryos were aseptically removed from pregnant rats under ether anesthesia. The brain was isolated from the embryo and immersed in HBSS (Sigma Aldrich #H9269) containing 10 mM HEPES (Gibco #15630-056). The cerebral cortex was collected from the isolated brain under a stereoscopic microscope. The cerebral cortex fragments collected were enzymatically treated in an enzyme solution containing 0.05% trypsin-EDTA solution (GIBCO, #25300) at 37° C. for 20 minutes to disperse the cells. The cells were then washed twice and then gently resuspended in Neurobasal medium (Gibco #21103) supplemented with 2% B27 supplement (GIBCO #17504-044), 0.5 mM L-glutamine (GIBCO #25030), 1×N2 (GIBCO #17502-048), 100 μg/ml Pen/Strep (GIBCO 15140-122) and 5% heat inactivated FCS (PAA #A15-701). The cell dispersion was filtered through a 40-μm nylon mesh (BD Falcon #352340) to remove the remaining cell mass, and thus a neuronal cell suspension was obtained. The neuronal cell suspension was diluted with the medium above and then plated in a volume of 100 μL/well at an initial cell density of 3.25×10^5 cells/ml in poly-D-lysine coated 96-well culture plate (Greiner #655940). The plated cells were cultured in the culture plate at 37° C. in 5% CO2-95% air for 24 hrs. The total amount of the medium was replaced with ‘assay Neurobasal medium’ (as above excluding heat inactivated FCS), and then the cells were cultured for a further five days.
The drug was added to the culture plate on Day 6 of culture as follows. 8 point compound serial dilutions were generated in DMSO at a concentration of ×1000 that of the final assay concentration (FAC). Compound solutions were then prepared by adding 999 ul of ‘Assay Neurobasal media’ (as described in above section) to 1 ul of DMSO compound stock. The total amount of the medium was removed from each of the cell plate wells, and […] of ‘Assay Neurobasal media’ was added followed by […] of compound solution. The final DMSO concentration was 0.1%. […]
Cell survival was evaluated using an Alamar assay according to the following procedure. […]
Measurement of fluorescence intensity for each well was the carried out at 540/590 nm using a Pherastar plus plate reader (BMG labtech). […]
Human/Rat β Amyloid (42) ELISA Kit Wako (#290-62601) and Human/Rat P Amyloid (40) ELISA Kit Wako (#294-62501) from Wako Pure Chemical Industries, Ltd. were used for Aβ ELISA. […] The results were shown as percentage of the control groups and IC50 values for each compound were determined using four parameter logistic fit model using the XLFIT5 software package (IDBS).

The test system of a further data set is Aβ40. To be noted: TASTPM mice, cited from earlier work.
The conditions of data set [2]: TASTPM mice, cited from earlier work; for brain concentration: oral dose of 250 mg/kg.
Another data set has as its target BACE-1 (Homo sapiens, UniProt P56817). To be noted: cited from earlier work.

Chain of BACE-1 (P56817 46-501, species assumed): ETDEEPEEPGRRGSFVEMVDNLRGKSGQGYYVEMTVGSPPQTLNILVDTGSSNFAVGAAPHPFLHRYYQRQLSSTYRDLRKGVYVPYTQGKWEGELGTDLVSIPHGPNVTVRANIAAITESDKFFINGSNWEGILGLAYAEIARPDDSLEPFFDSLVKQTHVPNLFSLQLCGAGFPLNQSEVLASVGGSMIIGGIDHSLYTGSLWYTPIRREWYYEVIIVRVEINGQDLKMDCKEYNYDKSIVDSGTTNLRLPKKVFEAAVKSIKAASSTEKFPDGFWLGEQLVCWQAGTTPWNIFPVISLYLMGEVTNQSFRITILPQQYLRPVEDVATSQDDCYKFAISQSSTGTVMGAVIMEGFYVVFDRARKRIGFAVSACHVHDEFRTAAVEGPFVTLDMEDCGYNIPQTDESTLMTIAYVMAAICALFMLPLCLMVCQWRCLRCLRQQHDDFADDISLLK

`COc1cnc(C(=O)Nc2cc(F)c(F)c([C@]34CO[C@H](C(F)F)[C@H]3CSC(N)=N4)c2)cn1` [Example 1, N-(3-((4aS,5S,7aS)-2-amino-5-(difluoromethyl)-4a,5,7,7a-tetrahydro-4H-furo[3,4-d][1,3]thiazin-7a-yl)-4,5-difluorophenyl)-5-methoxypyrazine-2-carboxamide]: the IC50 in data set [1] amounted to 7 nM.

In the case of `CCNc1cc(C(=O)N[C@@H](Cc2ccccc2)[C@H](O)CNCc2cccc(C(F)(F)F)c2)c(F)c(N2CCCCS2(=O)=O)c1` [GSK188909], in the data set with Aβ40 (250 mg/kg oral dose, absence of a Pgp inhibitor), the “effect on brain Aβ40 levels” value was “did not have any effect”. Moreover, the “reduction in brain Aβ40 levels relative to vehicle-treated mice” value with Aβ40 (250 mg/kg oral, Pgp inhibitor co-administered 5 hours prior) was 68%. For the same compound, the “increase in CNS penetration by co-administration of a Pgp inhibitor” value in data set [2] (250 mg/kg oral, with vs without GF120918) is reported as about 9 fold. For the same compound, the brain concentration in data set [2] (Pgp inhibitor GF120918 dosed 5 hours before) was 5.43 µM; in data set [2] (no Pgp inhibitor), 0.62 µM. The 50% inhibitory concentration (IC50) at BACE-1 is 5 nM.

What is called IC50 is the concentration that inhibits the measured activity by half.

The record behind these values is patent US9175013B2, “Fused aminodihydrothiazine derivatives” (Eisai R&D Management Co., Ltd., priority 2011, dated 2015).
